Laboratory results published in patent US11339130B1 (Blade Therapeutics, Inc., priority 2016, dated 2022).
Read-outs that look alike come from different tables or passages of the source.

Experiments:
Format in all cases: biochemical
Human Calpain 1/NS1 = target: T1, Human Calpain 1/NS1 (Homo sapiens, UniProt P07384); assay: Calpain inhibition continuous fluorescence (FRET) assay, Human Calpain 1/NS1; settings: read-out: Human Calpain 1/NS1 IC50
T1 sequence (P07384 1-714): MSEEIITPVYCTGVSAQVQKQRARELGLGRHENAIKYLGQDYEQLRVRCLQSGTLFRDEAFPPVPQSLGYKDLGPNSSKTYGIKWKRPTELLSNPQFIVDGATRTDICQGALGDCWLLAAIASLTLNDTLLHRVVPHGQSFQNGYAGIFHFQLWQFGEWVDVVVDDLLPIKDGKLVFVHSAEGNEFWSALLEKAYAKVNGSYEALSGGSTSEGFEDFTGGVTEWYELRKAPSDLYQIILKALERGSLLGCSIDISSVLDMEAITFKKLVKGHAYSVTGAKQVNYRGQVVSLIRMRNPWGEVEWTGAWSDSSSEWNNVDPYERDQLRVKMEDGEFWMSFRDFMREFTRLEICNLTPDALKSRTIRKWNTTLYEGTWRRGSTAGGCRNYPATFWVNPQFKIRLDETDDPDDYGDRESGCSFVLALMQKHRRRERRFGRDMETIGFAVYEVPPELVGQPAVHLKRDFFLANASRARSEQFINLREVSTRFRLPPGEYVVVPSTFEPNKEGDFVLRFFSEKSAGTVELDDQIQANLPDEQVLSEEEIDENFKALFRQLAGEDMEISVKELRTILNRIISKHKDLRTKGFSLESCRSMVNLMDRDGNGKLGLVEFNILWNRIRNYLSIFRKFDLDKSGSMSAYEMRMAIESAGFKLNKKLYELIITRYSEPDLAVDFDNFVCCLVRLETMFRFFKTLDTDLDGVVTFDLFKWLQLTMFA
T1 sequence (P04632 1-268 partner): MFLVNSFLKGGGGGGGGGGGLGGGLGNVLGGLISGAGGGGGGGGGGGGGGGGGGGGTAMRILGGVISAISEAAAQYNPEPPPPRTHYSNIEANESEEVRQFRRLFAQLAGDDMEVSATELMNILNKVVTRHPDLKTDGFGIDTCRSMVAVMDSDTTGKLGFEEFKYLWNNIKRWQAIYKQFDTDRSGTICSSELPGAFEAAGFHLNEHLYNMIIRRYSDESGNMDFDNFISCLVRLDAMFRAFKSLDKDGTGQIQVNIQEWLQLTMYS
Procedure, shortened: (§1)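 Buffer 50 mM Tris pH 7.5/100 mM NaCl/1 mM DTT; enzyme + cpd preinc 25C; start w/ FRET substrate + CaCl2; kinetic 490/520 nm, 10 min; slopes 1-5 min; 4-PL IC50.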

Human Calpain 2/NS1 = target: T2, Human Calpain 2/NS1 (Homo sapiens, UniProt P17655); assay: Calpain inhibition continuous fluorescence (FRET) assay, Human Calpain 2/NS1; settings: read-out: Human Calpain 2/NS1 IC50
T2 sequence (P17655 1-700): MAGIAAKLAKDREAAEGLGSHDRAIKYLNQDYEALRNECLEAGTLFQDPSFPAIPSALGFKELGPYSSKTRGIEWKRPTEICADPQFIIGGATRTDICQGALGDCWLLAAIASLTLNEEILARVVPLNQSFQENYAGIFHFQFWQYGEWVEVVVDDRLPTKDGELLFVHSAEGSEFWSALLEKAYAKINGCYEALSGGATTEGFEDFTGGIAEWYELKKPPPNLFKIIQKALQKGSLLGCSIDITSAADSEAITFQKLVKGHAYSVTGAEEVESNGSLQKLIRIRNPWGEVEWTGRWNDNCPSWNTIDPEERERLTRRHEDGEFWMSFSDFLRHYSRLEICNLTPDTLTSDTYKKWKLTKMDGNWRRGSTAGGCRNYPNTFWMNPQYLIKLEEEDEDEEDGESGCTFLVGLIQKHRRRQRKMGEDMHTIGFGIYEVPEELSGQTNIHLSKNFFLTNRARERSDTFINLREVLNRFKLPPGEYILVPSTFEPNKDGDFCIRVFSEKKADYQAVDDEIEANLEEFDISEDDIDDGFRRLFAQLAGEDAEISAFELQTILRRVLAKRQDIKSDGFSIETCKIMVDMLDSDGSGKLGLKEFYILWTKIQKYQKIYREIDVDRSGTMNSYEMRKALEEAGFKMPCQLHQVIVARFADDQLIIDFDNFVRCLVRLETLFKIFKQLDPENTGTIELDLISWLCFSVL
T2 sequence (P04632 1-268 partner): T1 sequence (P04632 1-268 partner)
Procedure, shortened: as §1

Human Calpain 9/NS1 = target: T3, Human Calpain 9/NS1 (Homo sapiens, UniProt O14815); assay: Calpain inhibition continuous fluorescence (FRET) assay, Human Calpain 9/NS1; settings: read-out: Human Calpain 9/NS1 IC50
T3 sequence (O14815 1-690): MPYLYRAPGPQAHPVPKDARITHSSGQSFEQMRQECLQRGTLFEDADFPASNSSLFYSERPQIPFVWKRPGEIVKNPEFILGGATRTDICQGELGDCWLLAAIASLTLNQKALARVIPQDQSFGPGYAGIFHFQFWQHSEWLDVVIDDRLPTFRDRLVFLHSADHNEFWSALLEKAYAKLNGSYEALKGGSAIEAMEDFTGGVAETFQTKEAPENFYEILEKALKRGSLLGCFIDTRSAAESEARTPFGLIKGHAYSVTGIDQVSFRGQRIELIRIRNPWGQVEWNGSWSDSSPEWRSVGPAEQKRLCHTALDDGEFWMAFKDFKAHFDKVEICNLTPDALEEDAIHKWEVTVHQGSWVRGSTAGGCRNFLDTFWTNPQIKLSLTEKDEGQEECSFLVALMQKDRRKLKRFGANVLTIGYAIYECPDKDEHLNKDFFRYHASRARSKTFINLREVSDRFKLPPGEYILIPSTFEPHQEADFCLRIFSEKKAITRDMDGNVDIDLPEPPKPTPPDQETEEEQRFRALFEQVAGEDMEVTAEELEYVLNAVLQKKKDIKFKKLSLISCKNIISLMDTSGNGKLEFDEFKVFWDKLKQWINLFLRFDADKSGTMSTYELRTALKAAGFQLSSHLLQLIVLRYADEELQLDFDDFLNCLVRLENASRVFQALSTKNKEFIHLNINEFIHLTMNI
T3 sequence (P04632 1-268 partner): T1 sequence (P04632 1-268 partner)
Procedure, shortened: as §1

IC50 (Human Calpain 1/NS1; Column A) | IC50 (Human Calpain 2/NS1; Column B) | IC50 (Human Calpain 9/NS1; Column C) | IC50 (Human Calpain 1/NS1) | IC50 (Human Calpain 2/NS1) | IC50 (Human Calpain 9/NS1) | SMILES
< 3 µM | < 3 µM | < 3 µM |  |  |  | Cn1cc(C(=O)N[C@@H](Cc2ccccc2)C(=O)C(N)=O)c(-c2ccccc2)n1 [Compound 32, (S)—N-(4-amino-3,4-dioxo-1-phenylbutan-2-yl)-1-methyl-3-phenyl-1H-pyrazole-4-carboxamide]
< 3 µM | < 3 µM | < 3 µM |  |  |  | NC(=O)C(=O)[C@H](Cc1ccccc1)NC(=O)c1nsnc1-c1ccccc1 [Compound 72, (S)—N-(4-amino-3,4-dioxo-1-phenylbutan-2-yl)-4-phenyl-1,2,5-thiadiazole-3-carboxamide]
 |  |  | < 3 µM | < 3 µM | < 3 µM | Cc1nc(-c2ccccc2)c(C(=O)NC(Cc2ccccc2)C(=O)C(N)=O)o1 (stereo not drawn) [Compound 357, N-(4-amino-3,4-dioxo-1-phenylbutan-2-yl)-2-methyl-4-phenyloxazole-5-carboxamide]
 |  |  | < 3 µM | < 3 µM | < 3 µM | Cc1nc(-c2cccc(F)c2)c(C(=O)NC(Cc2ccccc2)C(=O)C(N)=O)o1 (stereo not drawn) [Compound 404, N-(4-amino-3,4-dioxo-1-phenylbutan-2-yl)-4-(3-fluorophenyl)-2-methyloxazole-5-carboxamide]
 |  |  | < 3 µM | < 3 µM | < 3 µM | Cc1nc(-c2ccccc2F)c(C(=O)NC(Cc2ccccc2)C(=O)C(N)=O)o1 (stereo not drawn) [Compound 405, N-(4-amino-3,4-dioxo-1-phenylbutan-2-yl)-4-(2-fluorophenyl)-2-methyloxazole-5-carboxamide]

The next lines start with the compound.

SMILES | IC50 (Human Calpain 1/NS1; Column A) | IC50 (Human Calpain 2/NS1; Column B) | IC50 (Human Calpain 9/NS1; Column C) | IC50 (Human Calpain 1/NS1) | IC50 (Human Calpain 2/NS1) | IC50 (Human Calpain 9/NS1)
NC(=O)C(=O)[C@H](Cc1ccccc1)NC(=O)c1snnc1-c1ccccc1 [Compound 44, (S)—N-(4-amino-3,4-dioxo-1-phenylbutan-2-yl)-4-phenyl-1,2,3-thiadiazole-5-carboxamide] | < 3 µM | < 3 µM | < 3 µM |  |  | 
NC(=O)C(=O)[C@H](Cc1ccccc1)NC(=O)c1cnoc1-c1ccccc1 [Compound 60, (S)—N-(4-amino-3,4-dioxo-1-phenylbutan-2-yl)-5-phenylisoxazole-4-carboxamide] | < 3 µM | < 3 µM | < 3 µM |  |  | 
NC(=O)C(=O)[C@H](Cc1ccccc1)NC(=O)c1cn(C2CC2)nc1-c1ccccc1 [Compound 250, (S)—N-(4-amino-3,4-dioxo-1-phenylbutan-2-yl)-1-cyclopropyl-3-phenyl-1H-pyrazole-4-carboxamide] | < 3 µM | < 3 µM | < 3 µM |  |  | 
CCCC[C@H](NC(=O)c1oc(C)nc1-c1ccccc1)C(=O)C(N)=O [Compound 265, (S)—N-(1-amino-1,2-dioxoheptan-3-yl)-2-methyl-4-phenyloxazole-5-carboxamide] | < 3 µM | < 3 µM | < 3 µM |  |  | 
NC(=O)C(=O)C(Cc1ccccc1)NC(=O)c1cn(C(F)F)nc1-c1ccccc1 (stereo not drawn) [Compound 403, N-(4-amino-3,4-dioxo-1-phenylbutan-2-yl)-1-(difluoromethyl)-3-phenyl-1H-pyrazole-4-carboxamide] |  |  |  | < 3 µM | < 3 µM | < 3 µM
NC(=O)C(=O)C(Cc1ccccc1)NC(=O)c1cn(C2CC2)nc1-c1ccccc1 (stereo not drawn) [Compound 406, N-(4-amino-3,4-dioxo-1-phenylbutan-2-yl)-1-cyclopropyl-3-phenyl-1H-pyrazole-4-carboxamide] |  |  |  | < 3 µM | < 3 µM | < 3 µM
Cn1cc(C(=O)NC(Cc2ccccc2)C(=O)C(N)=O)c(-c2ccccc2F)n1 (stereo not drawn) [Compound 484, N-(4-amino-3,4-dioxo-1-phenylbutan-2-yl)-3-(2-fluorophenyl)-1-methyl-1H-pyrazole-4-carboxamide] |  |  |  | < 3 µM | < 3 µM | < 3 µM
Cl.Cn1cc(C(=O)NC(Cc2ccccc2)C(=O)C(N)=O)c(-c2cccc(F)c2)n1 (stereo not drawn) [Compound 485, N-(4-amino-3,4-dioxo-1-phenylbutan-2-yl)-3-(3-fluorophenyl)-1-methyl-1H-pyrazole-4-carboxamide hydrochloride] |  |  |  | < 3 µM | < 3 µM | < 3 µM
Cc1cc(C(=O)NC(Cc2ccccc2)C(=O)C(N)=O)n(-c2ccccn2)n1 (stereo not drawn) [Compound 495, N-(4-amino-3,4-dioxo-1-phenylbutan-2-yl)-3-methyl-1-(pyridin-2-yl)-1H-pyrazole-5-carboxamide] |  |  |  | < 3 µM | < 3 µM | < 3 µM
